Data as given in ChEMBL document CHEMBL4725338, “Discovery of novel histone lysine methyltransferase G9a/GLP (EHMT2/1) inhibitors: Design, synthesis, and structure-activity relationships of 2,4-diamino-6-methylpyrimidines” (Bioorg Med Chem Lett, 2020).
Values after ≈ are worked out from the molar mass of the structure shown. Active and inactive are the calls of the source. The calls are words filed in the database; no cut-off is given here.

Assays:
[1] = test system: CD34-positive (myeloid/lymphoid) cell; assay: Inhibition of G9a methyltransferase activity in human CD34+ cells assessed as induction of fetal type gamma globin at 1 uM in presence of erythropoietin measured after 21 days by staining based method; type: functional; settings: time 21.0 day
[2] = target: T1, Histone-lysine N-methyltransferase EHMT1 (Homo sapiens, UniProt Q9H9B1); assay: Inhibition of GLP (unknown origin)
T1 sequence (Q9H9B1 whole entry): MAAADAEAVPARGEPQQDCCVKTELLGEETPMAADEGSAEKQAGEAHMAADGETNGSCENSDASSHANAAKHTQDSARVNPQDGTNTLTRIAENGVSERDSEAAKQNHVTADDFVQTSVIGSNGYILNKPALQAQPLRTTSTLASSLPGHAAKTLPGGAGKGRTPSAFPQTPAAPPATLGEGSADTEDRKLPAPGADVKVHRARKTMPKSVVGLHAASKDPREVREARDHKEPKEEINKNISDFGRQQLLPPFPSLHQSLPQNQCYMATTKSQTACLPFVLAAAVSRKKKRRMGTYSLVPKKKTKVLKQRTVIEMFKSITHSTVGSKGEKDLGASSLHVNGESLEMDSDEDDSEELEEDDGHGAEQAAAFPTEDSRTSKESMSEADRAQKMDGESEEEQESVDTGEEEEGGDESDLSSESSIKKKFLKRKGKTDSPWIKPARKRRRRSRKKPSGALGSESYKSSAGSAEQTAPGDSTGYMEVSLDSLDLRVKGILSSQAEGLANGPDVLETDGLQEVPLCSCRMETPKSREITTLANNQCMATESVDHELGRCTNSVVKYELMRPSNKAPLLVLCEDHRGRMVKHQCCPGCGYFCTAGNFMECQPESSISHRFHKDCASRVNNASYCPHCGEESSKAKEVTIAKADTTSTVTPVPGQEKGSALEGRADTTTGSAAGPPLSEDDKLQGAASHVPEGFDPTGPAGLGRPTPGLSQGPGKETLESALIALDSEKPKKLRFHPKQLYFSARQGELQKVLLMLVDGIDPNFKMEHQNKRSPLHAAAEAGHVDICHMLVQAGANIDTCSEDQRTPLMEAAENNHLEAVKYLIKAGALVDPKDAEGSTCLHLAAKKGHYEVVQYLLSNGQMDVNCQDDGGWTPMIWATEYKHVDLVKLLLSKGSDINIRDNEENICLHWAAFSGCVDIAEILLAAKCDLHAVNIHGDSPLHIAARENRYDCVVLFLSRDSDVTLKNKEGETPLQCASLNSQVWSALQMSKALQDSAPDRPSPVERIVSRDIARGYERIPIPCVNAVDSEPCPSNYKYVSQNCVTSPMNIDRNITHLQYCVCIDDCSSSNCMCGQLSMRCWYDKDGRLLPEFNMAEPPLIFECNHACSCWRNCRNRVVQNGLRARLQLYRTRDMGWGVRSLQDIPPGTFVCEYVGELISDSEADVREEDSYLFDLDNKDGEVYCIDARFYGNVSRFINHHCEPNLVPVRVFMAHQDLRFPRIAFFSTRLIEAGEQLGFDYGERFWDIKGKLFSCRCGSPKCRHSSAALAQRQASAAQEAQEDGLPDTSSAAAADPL

[3] = target: T2, Histone-lysine N-methyltransferase EHMT2 (Homo sapiens, UniProt Q96KQ7); assay: Inhibition G9a (unknown origin)
T2 sequence (Q96KQ7 whole entry): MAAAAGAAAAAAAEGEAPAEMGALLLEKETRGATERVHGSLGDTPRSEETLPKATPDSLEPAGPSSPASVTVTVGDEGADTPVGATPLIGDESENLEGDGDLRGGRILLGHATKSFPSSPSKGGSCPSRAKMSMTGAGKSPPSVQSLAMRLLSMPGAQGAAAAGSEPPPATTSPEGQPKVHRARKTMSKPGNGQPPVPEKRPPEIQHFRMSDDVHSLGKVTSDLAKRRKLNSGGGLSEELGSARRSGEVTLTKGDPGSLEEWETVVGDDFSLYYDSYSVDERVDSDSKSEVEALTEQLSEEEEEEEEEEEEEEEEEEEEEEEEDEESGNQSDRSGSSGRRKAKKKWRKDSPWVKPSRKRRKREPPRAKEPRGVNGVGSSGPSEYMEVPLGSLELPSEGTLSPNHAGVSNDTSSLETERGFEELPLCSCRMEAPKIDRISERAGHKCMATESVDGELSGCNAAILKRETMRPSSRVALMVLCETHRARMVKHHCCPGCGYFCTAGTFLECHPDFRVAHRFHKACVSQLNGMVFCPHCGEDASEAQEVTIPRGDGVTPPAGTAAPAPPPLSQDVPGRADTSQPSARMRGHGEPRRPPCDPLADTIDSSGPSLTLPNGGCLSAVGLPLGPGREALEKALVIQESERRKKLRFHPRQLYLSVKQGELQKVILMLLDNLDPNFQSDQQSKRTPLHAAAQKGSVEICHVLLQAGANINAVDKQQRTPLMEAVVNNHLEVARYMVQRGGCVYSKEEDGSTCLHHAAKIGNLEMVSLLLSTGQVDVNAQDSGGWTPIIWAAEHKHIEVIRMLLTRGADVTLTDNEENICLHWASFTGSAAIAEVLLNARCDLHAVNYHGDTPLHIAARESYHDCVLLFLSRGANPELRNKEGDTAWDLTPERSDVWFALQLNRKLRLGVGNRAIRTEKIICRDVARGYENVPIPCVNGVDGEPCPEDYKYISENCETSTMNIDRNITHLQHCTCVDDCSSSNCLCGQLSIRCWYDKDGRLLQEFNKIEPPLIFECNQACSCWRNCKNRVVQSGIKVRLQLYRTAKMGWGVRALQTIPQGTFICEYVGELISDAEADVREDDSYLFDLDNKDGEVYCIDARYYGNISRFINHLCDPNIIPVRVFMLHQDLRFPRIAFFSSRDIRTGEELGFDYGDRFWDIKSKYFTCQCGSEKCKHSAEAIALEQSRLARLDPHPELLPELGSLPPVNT

[4] = Metabolic stability in mouse liver microsomes assessed as compound remaining at 0.5 mg/mL incubated for 0.5 hrs; type: ADME, Microsome; settings: read-out: Stabilty
[5] = Half-life in mouse at 1 mg/kg, iv; type: ADME, organism-based; settings: in vivo
[6] = Aqueous solubility of the compound in pH 1.2 JP1 fluid; type: physicochemical
[7] = Oral bioavailability in mouse at 10 mg/kg; type: ADME, organism-based; settings: in vivo
[8] = AUC (0 to infinity) in mouse at 10 mg/kg, po; type: ADME, organism-based; design: time infinity, route oral, dose 10 mg/kg; settings: in vivo
[9] = Apparent permeability in MDCK cells; type: ADME, cell-based, Canis lupus familiaris; settings: dog
[10] = Tmax in mouse at 10 mg/kg, po; type: ADME, organism-based; settings: in vivo
hERG (KCNH2) = hERG (KCNH2) (Homo sapiens, UniProt Q12809); assay: Inhibition of human ERG at 10 uM relative to control
[11] = Lipophilicity, log D of compound; type: physicochemical; settings: octanol/water
[12] = Cmax in mouse at 10 mg/kg, po; type: ADME, organism-based; design: route oral, dose 10 mg/kg; settings: in vivo
[13] = Metabolic stability in monkey liver microsomes assessed as compound remaining at 0.5 mg/mL incubated for 0.5 hrs; type: ADME, Macaca mulatta, Microsome; settings: rhesus monkey, read-out: Stabilty
CYP3A4 = CYP3A4 (Homo sapiens, UniProt P08684); assay: Mechanism based inhibition of CYP3A4 in human liver microsome assessed as remaining percentage at 100 uM in presence of substrate ACN preincubated 30 mins followed by substrate addition relative to control; type: ADME; settings: liver microsomes, probe ACN (so in the source), read-out: Activity
[14] = Intrinsic clearance in mouse at 1 mg/kg, iv; type: ADME, organism-based; settings: in vivo
[15] = Initial plasma concentration in mouse at 1 mg/kg, iv; type: ADME, organism-based
[16] = AUC (0 to infinity) in mouse at 1 mg/kg, iv; type: ADME, organism-based; design: time infinity, route intravenous, dose 1 mg/kg; settings: in vivo
[17] = Metabolic stability in human liver microsomes assessed as compound remaining at 0.5 mg/mL incubated for 0.5 hrs; type: ADME, Microsome; settings: read-out: Stabilty
[18] = Volume of distribution at steady state in mouse at 1 mg/kg, iv; type: ADME, organism-based; settings: in vivo, read-out: Vdss
[19] = Aqueous solubility of the compound in pH 6.8 JP2 fluid; type: physicochemical
[20] = test system: CD34-positive (myeloid/lymphoid) cell; assay: Induction of fetal globin in human CD34+ cells assessed as switching of mRAN expression from adult beta-globin to fetal type gamma globin at 0.3 to 1 uM by qRT-PCR analysis; type: functional, cell-based

Chain of CYP3A4 (P08684 whole entry): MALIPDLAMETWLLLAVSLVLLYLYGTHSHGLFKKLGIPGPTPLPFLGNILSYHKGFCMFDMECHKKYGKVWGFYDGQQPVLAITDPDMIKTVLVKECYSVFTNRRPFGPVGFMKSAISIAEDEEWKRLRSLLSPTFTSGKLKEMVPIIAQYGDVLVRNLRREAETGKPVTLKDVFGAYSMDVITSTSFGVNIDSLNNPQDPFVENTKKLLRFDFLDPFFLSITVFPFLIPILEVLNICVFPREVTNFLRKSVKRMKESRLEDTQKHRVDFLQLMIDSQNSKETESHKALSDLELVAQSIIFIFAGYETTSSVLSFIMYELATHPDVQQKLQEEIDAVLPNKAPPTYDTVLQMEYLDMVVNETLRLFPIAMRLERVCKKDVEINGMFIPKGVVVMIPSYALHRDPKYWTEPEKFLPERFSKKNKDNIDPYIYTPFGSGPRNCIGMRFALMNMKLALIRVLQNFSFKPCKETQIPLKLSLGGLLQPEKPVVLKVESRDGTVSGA
Chain of hERG (KCNH2) (Q12809 whole entry): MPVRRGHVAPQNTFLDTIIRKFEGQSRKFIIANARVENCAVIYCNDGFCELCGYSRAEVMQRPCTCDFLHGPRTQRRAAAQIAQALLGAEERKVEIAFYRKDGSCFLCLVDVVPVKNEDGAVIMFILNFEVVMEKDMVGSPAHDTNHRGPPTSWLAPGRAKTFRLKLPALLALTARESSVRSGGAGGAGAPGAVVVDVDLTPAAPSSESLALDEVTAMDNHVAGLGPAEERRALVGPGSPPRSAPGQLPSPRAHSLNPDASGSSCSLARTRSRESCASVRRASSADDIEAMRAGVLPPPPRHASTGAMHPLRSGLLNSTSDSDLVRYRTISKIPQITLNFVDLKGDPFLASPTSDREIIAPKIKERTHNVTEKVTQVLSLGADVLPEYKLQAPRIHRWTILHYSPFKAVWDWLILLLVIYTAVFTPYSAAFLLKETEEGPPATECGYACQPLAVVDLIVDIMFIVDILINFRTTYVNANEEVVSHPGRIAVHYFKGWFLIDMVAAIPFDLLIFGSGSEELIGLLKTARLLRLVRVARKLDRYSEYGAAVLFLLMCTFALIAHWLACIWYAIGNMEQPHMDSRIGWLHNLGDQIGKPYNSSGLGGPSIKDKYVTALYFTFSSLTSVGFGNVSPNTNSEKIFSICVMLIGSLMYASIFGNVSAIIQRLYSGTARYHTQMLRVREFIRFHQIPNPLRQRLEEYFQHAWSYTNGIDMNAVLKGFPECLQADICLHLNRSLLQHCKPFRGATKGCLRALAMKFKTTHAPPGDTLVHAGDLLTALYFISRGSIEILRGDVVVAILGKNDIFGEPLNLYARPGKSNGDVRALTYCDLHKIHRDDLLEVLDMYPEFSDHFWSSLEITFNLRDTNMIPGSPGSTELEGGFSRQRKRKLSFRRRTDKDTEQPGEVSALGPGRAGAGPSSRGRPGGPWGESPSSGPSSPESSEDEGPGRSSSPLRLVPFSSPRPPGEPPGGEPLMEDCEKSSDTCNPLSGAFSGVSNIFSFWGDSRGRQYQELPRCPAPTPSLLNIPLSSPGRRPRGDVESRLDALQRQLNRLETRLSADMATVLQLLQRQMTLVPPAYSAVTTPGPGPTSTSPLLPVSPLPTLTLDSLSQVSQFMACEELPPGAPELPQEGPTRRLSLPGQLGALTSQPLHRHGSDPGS

Structure (SMILES) | IC50 [2] [nM] | IC50 [3] [nM] | also measured
COc1cc2c(NC3CCN(C(C)C)CC3)nc(C3CCCCC3)nc2cc1OCCCN1CCCC1 |  |  | Activity [1]: Active
CNc1cc(C)nc(Nc2ccc(OC)c(C3=CCNCC3)c2)n1 | 1160 | 225 | 
CNc1cc(C)nc(Nc2ccc(OC(F)F)c(C3=CCNCCC3)c2)n1 | 14.7 | 3.25 | 
CNc1cc(C)nc(Nc2ccc(OC)c(C3=CCN(C)CCC3)c2)n1 | 74.1 |  | remaining at 0.5 h [4]: 23%; half-life [5]: 5.6 h; solubility [6]: 710 µg/mL (≈ 2010 µM); bioavailability [7]: 26%; AUC(0-inf) [8]: 3.14 µM·h; Papp [9]: 8.4 ×10⁻⁶ cm/s; Tmax [10]: 0.63 h; inhibition at 10 µM (hERG (KCNH2)): 17%; logD [11]: 1.3; Cmax [12]: 210 nM; remaining at 0.5 h [13]: 2%; activity at 30 min, 100 µM (CYP3A4): 87.3%; CL [14]: 38.7 mL/min/kg; C0 [15]: 220 nM; AUC(0-inf) [16]: 1.2 µM·h; remaining at 0.5 h [17]: 76%; Vd [18]: 14.9 L/kg; solubility [19]: 360 µg/mL (≈ 1020 µM)
CNc1cc(C)nc(Nc2ccc(C#N)c(C3=CCNCCC3)c2)n1 | 43.2 | 15.2 | 
CCN1CC=C(c2cc(Nc3nc(C)cc(NC)n3)ccc2OC)CCC1 | 44.1 | 10.5 | 
CNc1cc(C)nc(Nc2ccc(OC)c(C3=CCN(C4CCC4)CCC3)c2)n1 | 1070 | 145 | 
CNc1cc(C)nc(Nc2ccc(OC(F)(F)F)c(C3=CCNCCC3)c2)n1 | 3800 | 853 | 
CNc1cc(C)nc(Nc2ccc(OC)c(C3CCCNCC3)c2)n1 (racemic) | 342 | 28.2 | 
CNc1cc(C)nc(Nc2ccc(OC)c(C3=CCCNCC3)c2)n1 | 479 | 83.3 | 
CNc1cc(C)nc(Nc2ccc(Cl)c(C3=CCNCCC3)c2)n1 | 27.1 | 6.32 | 
CNc1cc(C)nc(Nc2ccc(OC)c(C3=CCCN(C)C3)c2)n1 | 864 | 451 | 
COc1cc2c(cc1OCCCN1CCCC1)N=C(N)C21CCC1 |  |  | Activity [20]: Active
CNc1cc(C)nc(Nc2ccc(OC)c(C3=CCN(CCO)CCC3)c2)n1 | 1590 | 213 | 
CNc1cc(C)nc(Nc2ccc(OC)c(C3=CCN(C)CC3)c2)n1 | 277 | 92.9 | 
CNc1cc(C)nc(Nc2ccc(OC)c(C3CCN(C)CC3)c2)n1 |  | 588 | 
CNc1cc(C)nc(Nc2ccc(OC)c(C3=CCN(C)C3)c2)n1 | 2770 | 1490 | 
CNc1cc(C)nc(Nc2ccc(C)c(C3=CCNCCC3)c2)n1 | 109 | 14.2 | 
CNc1cc(C)nc(Nc2ccc(OC)c(N3CCN(C)CC3)c2)n1 |  | > 5000 | 
